Measurements: US20230129258A1, “HETEROTANDEM BICYCLIC PEPTIDE COMPLEXES” (BicycleTx Limited, priority 2019, published 2023)
Starred links: 1 amine or outer side, 2 acyl side, 3 side chain; linkers in the order of their positions; H or OH if unused. Positions of bridges follow the written chain, without caps; N, C: chain ends. Non-standard residues stand in square brackets, D forms with d. Chains are numbered I, II in the order given. No end group written: not given here. *: point of attachment. X4 = O=C(CCOCCOCCOCCOCCOCCn1cc(CCC(=O)[*:2])nn1)NCCCN(CCCNC(=O)CCOCCOCCOCCOCCOCCn1cc(CCC(=O)[*:3])nn1)CC(=O)[*:1]; X1 = O=C(CCOCCOCCOCCN(CCOCCOCCOCCn1cc(CCC(=O)[*:2])nn1)CCOCCOCCOCCn1cc(CCC(=O)[*:3])nn1)[*:1]; X3 = O=C(CCc1cn(CCOCCOCCOCCN(CCOCCOCCOCCC(=O)[*:3])CCOCCOCCOCCn2cc(CCC(=O)[*:2])nn2)nn1)[*:1]; X2 = O=C(CCSCCC(=O)[*:1])N1CN(C(=O)CC[*:2])CN(C(=O)CC[*:3])C1; TATA = O=C(CC[*:1])N1CN(C(=O)CC[*:2])CN(C(=O)CC[*:3])C1; Dip = N[C@H](C(=O)O)C(c1ccccc1)c1ccccc1; γGlu = O=C(O)[C@H](CCC(=O)[*:2])N[*:1]; 1Nal = N[C@@H](Cc1cccc2ccccc12)C(=O)O; Palmitoyl = CCCCCCCCCCCCCCCC(=O)*; Hyp = O=C(O)[C@@H]1C[C@@H](O)CN1; hArg = N=C(N)NCCCC[C@H](N)C(=O)O; tBuAla = CC(C)(C)C[C@H](N)C(=O)O; Aad = N[C@@H](CCCC(=O)O)C(=O)O; Cysteamide = C(CS[*:3])N[*:1]; Cba = N[C@@H](CC1CCC1)C(=O)O; dK(PYA) = not defined here; dNle = CCCC[C@@H](N)C(=O)O; Nle = CCCC[C@H](N)C(=O)O; Pent4ynoyl = C#CCCC(=O)*; Mpa = O=C(O)CCS

Molecular target: CD137 (Homo sapiens, UniProt Q07011)
Test: CD137 reporter assay (Promega, Jurkat cells) in co-culture with EphA2-expressing tumor cells (A549, PC3, HT29)
Format: cell-based
Design: host or cells: Jurkat reporter cells
Details: for Emax (fold induction over background) / fold induction: CD137 reporter coculture assay with PC3 tumor cells; for EC50: EC50, CD137 reporter coculture assay with PC3 tumor cells; for Fold Improvement over BCY9173, EC50 (nM) / Fold Improvement over Emax: co-culture with PC3; for Fold Improvement over Emax: versus BCY9173; for fold induction: read-out: Emax (fold induction over background)
Protocol: Culture medium, referred to as R1 media, is prepared by adding 1% FBS to RPMI-1640 (component of Promega kit CS196005). Serial dilutions of test articles in R1 are prepared in a sterile 96 well-plate. Add 25 μL per well of test articles or R1 (as a background control) to designated wells in a white cell culture plate. Tumor cells* are harvested and resuspended at a concentration of 400,000 cells/mL in R1 media. Twenty five (25) μL/well of tumor cells are added to the white cell culture plate. Jurkat cells (Promega kit CS196005, 0.5 mL) are thawed in the water bath and then added to 5 ml pre-warmed R1 media. Twenty five (25) μL/well of Jurkat cells are then added to the white cell culture plate. Incubate the cells and test articles for 6 h at 37° C., 5% CO2. At the end of 6 h, add 75 μL/well Bio-Glo™ reagent (Promega) and incubate for 10 min before reading luminescence in a plate reader (Clariostar, BMG). The fold change relative to cells alone (Jurkat cells+Cell line used in co-culture) is calculated and plotted in GraphPad Prism as log(agonist) vs response to determine EC50 (nM) and Fold Induction over background (Max).
The tumor cell types used in co-culture for EphA2 are A549, PC3 and HT29. The tumor cell type used in co-culture for PD-L1 is RKO.

CD137, sequence (Q07011 24-255): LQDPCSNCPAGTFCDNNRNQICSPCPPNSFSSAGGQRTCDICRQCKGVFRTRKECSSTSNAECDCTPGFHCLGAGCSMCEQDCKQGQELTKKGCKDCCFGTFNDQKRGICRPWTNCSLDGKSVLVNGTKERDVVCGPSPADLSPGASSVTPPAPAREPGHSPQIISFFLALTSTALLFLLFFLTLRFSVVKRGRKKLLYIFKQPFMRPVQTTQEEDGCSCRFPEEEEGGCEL

Row | Fold Improvement over BCY9173, EC50 (nM) | Fold Improvement over Emax | Substance | Emax (fold induction over background) | EC50 | fold induction
1 |  |  | I: A[hArg]DC[Hyp]LVNPLCLHP[dD]W[hArg]C-NH2 / II: [Mpa][tBuAla]EE[dK]PYCFADPY[Nle]C-NH2 / III: [tBuAla]EE[dK]PYCFADPY[Nle]C-NH2 (linker I:4-I:11-I:18, II:1-II:8-II:15 via TATA; linker I:N-II:5-III:4 via X1; linker III:N-III:7-III:14 via X2) [BCY13139] | 43.75 | 0.16 nM | 
2 | 0.5 fold | 0.4 fold | BCY12732: EphA2:CD137 1:2; BCY9594 + 2x BCY12360; linker N-(acid-PEG3)-N-bis(PEG3-azide) (peptide 1 A[hArg]DC[Hyp]LVNPLCLHP[dD]W[hArg]C; peptide 2 {Palmitoyl-γGlu-γGlu}-C[tBuAla]PE[dK(PYA)]PYCFADPY[Nle]C; linker I:4-I:11-I:18 via TATA (inferred); linker II:1-II:8-II:15 via TATA; not fully specified (N-terminus); reading uncertain; also: chain 2 twice (1:2 complex), linker at chain B 5 to a chain's N-terminus via N-(acid-PEG3)-N-bis(PEG3-azide)) |  |  | 
3 | 7.14 fold | 0.94 fold | BCY14335: EphA2:CD137 1:2; BCY14327 (Lys 8) + 2x BCY8928; linker N-(acid-PEG3)-N-bis(PEG3-azide) (peptide 1 {Palmitoyl‑Glu‑LysN3-Pent4ynoyl}-A[hArg]DC[Hyp]LVNPLCLKP[dD]W[hArg]C; peptide 2 Ac-C[tBuAla]PE[dK](Pent4ynoyl)PYCFADPY[Nle]CA; linker I:4-I:11-I:18, II:1-II:8-II:15 via TATA (inferred); not fully specified (some residues); also: 1:2 complex: linker bis(PEG3-azide) clicked to dLys(PYA)4 of two BCY8928 copies, one copy shown) |  |  | 
4 |  |  | I: Ac-A[hArg]DC[Hyp]LVNPLCLKP[dD]W[hArg]C-NH2 / II: Ac-C[tBuAla]PE[dK]PYCFADPY[Nle]CA-NH2 / III: Ac-C[tBuAla]PE[dK]PYCFADPY[Nle]CA-NH2 (linker I:4-I:11-I:18, II:1-II:8-II:15, III:1-III:8-III:15 via TATA; linker I:13-II:5-III:5 via X1) [BCY12974] |  | 0.18 nM | 59.6
5 |  |  | I: A[hArg]DC[Hyp]LVNPLCLHP[dNle]W[hArg]C-NH2 / II: Ac-C[tBuAla]PE[dK]PYCFADPY[Nle]CA-NH2 / III: Ac-C[tBuAla]PE[dK]PYCFADPY[Nle]CA-NH2 (linker I:4-I:11-I:18, II:1-II:8-II:15, III:1-III:8-III:15 via TATA; linker I:N-II:5-III:5 via X1) [BCY13288] |  | 0.09 nM | 43.3
6 |  |  | I: A[hArg]DC[Hyp]LVNPLCLHP[dD]W[hArg]C-NH2 / II: Ac-C[tBuAla]PE[dK]PYCFADPY[Nle]CA-NH2 / III: Ac-C[tBuAla]PE[dK]PYCFADPY[Nle]CA-NH2 (linker I:4-I:11-I:18, II:1-II:8-II:15, III:1-III:8-III:15 via TATA; linker I:N-II:5-III:5 via X4) [BCY12979] | 71.60 | 0.08 nM | 
7 | 7.21 fold | 1.62 fold | BCY14334: EphA2:CD137 1:2; BCY14313 + 2x BCY8928; linker N-(acid-PEG3)-N-bis(PEG3-azide) (peptide 1 A[hArg]DC[Hyp]LVNPLCLKP[dD]W[hArg]C; peptide 2 Ac-C[tBuAla]PE[dK](Pent4ynoyl)PYCFADPY[Nle]CA; linker I:4-I:11-I:18, II:1-II:8-II:15 via TATA (inferred); not fully specified (some residues, N-terminus); also: 1:2 complex: chain 1 N-terminus joined to dLys(PYA)5 of two chain 2 copies via N-(acid-PEG3)-N-bis(PEG3-azide) linker) |  |  | 
8 |  |  | I: Ac-A[hArg]DC[Hyp]KVNPLCLHP[dD]W[hArg]C-NH2 / II: Ac-C[tBuAla]PE[dK]PYCFADPY[Nle]CA-NH2 / III: Ac-C[tBuAla]PE[dK]PYCFADPY[Nle]CA-NH2 (linker I:4-I:11-I:18, II:1-II:8-II:15, III:1-III:8-III:15 via TATA; linker I:6-II:5-III:5 via X1) [BCY12975] |  | 0.16 nM | 68.8
9 | 0.2 fold | 0.9 fold | BCY12726: EphA2:CD137 1:2; BCY9594 + 2x BCY12145; linker N-(acid-PEG3)-N-bis(PEG3-azide) (peptide 1 A[hArg]DC[Hyp]LVNPLCLHP[dD]W[hArg]C; peptide 2 Ac-C[tBuAla]PE[dK(PYA)]PYCFAEPY[Nle]C; linker I:4-I:11-I:18 via TATA (inferred); linker II:1-II:8-II:15 via TATA; linker II:N-II:5 via N‑(acid-PEG3)‑N‑bis(PEG3-azide); not fully specified (N-terminus); reading uncertain; also: chain 2 twice (1:2 complex)) |  |  | 
10 |  |  | I: Ac-A[hArg]DC[Hyp]LVNPLCKHP[dD]W[hArg]C-NH2 / II: Ac-C[tBuAla]PE[dK]PYCFADPY[Nle]CA-NH2 / III: Ac-C[tBuAla]PE[dK]PYCFADPY[Nle]CA-NH2 (linker I:4-I:11-I:18, II:1-II:8-II:15, III:1-III:8-III:15 via TATA; linker I:12-II:5-III:5 via X1) [BCY12976] |  | 0.18 nM | 73.2
11 |  |  | I: A[hArg]DC[Hyp]LVNPLCL[Aad]P[dD]W[hArg]C-NH2 / II: Ac-C[tBuAla]PE[dK]PYCFADPY[Nle]CA-NH2 / III: Ac-C[tBuAla]PE[dK]PYCFADPY[Nle]CA-NH2 (linker I:4-I:11-I:18, II:1-II:8-II:15, III:1-III:8-III:15 via TATA; linker I:N-II:5-III:5 via X1) [BCY13286] |  | 0.11 nM | 34.1
12 | 0.5 fold | 1.6 fold | BCY12729: EphA2:CD137 1:2; BCY9594 + 2x BCY12352; linker N-(acid-PEG3)-N-bis(PEG3-azide) (peptide 1 A[hArg]DC[Hyp]LVNPLCLHP[dD]W[hArg]C; peptide 2 Ac-C[tBuAla]PE[dK(PYA)]PYCFADPY[Nle][Cysteamide]; linker I:4-I:11-I:18 via TATA (inferred); linker II:1-II:8-II:15 via TATA; linker II:N-II:5 via N‑(acid-PEG3)‑N‑bis(PEG3-azide); not fully specified (N-terminus); reading uncertain; also: chain 2 twice (1:2 complex)) |  |  | 
13 |  |  | I: A[hArg]DC[Hyp]LVNPLCLEP[dD]WTC-NH2 / II: [Mpa][tBuAla]PE[dK]PYCFADPY[Nle]C-NH2 / III: [tBuAla]PE[dK]PYCFADPY[Nle]C-NH2 (linker I:4-I:11-I:18, II:1-II:8-II:15 via TATA; linker I:N-II:5-III:4 via X1; linker III:N-III:7-III:14 via X2) [BCY13138] |  | 0.17 nM | 32.6
14 |  |  | I: [dA][hArg]DC[Hyp][Cba]VNPLCLEP[dD]WTC[dA]-NH2 / II: Ac-C[tBuAla]PE[dK]PYCFADPY[Nle]CA-NH2 / III: Ac-C[tBuAla]PE[dK]PYCFADPY[Nle]CA-NH2 (linker I:4-I:11-I:18, II:1-II:8-II:15, III:1-III:8-III:15 via TATA; linker I:N-II:5-III:5 via X1) [BCY13052] |  | 0.21 nM | 32.9
15 |  |  | I: A[hArg]DC[Hyp][Cba]VNPLCLEP[dD]WTC-NH2 / II: Ac-C[tBuAla]PE[dK]PYCFADPY[Nle]CA-NH2 / III: Ac-C[tBuAla]PE[dK]PYCFADPY[Nle]CA-NH2 (linker I:4-I:11-I:18, II:1-II:8-II:15, III:1-III:8-III:15 via TATA; linker I:N-II:5-III:5 via X1) [BCY13051] | 37.05 | 0.21 nM | 
16 |  |  | I: C[Hyp]LVNPLCL[Dip]P[dD]WTC-NH2 / II: [Mpa][tBuAla]PE[dK]PYCFADPY[Nle]C-NH2 / III: [tBuAla]PE[dK]PYCFADPY[Nle]C-NH2 (linker I:1-I:8-I:15, II:1-II:8-II:15 via TATA; linker I:N-II:5-III:4 via X1; linker III:N-III:7-III:14 via X2) [BCY13343] | 44.00 | 0.11 nM | 
17 |  |  | I: Ac-C[tBuAla]PE[dK]PYCFADPY[Nle]CA-NH2 / II: Ac-C[tBuAla]PE[dK]PYCFADPY[Nle]CA-NH2 / III: C[Hyp]LVNPLCL[1Nal]P[dD]WTC-NH2 (linker I:1-I:8-I:15, II:1-II:8-II:15, III:1-III:8-III:15 via TATA; linker I:5-II:5-III:N via X3) [BCY13273] | 51.27 |  | 
18 |  |  | I: A[hArg]DC[Hyp]LVNPLCLEP[dA]WTC-NH2 / II: Ac-C[tBuAla]PE[dK]PYCFADPY[Nle]CA-NH2 / III: Ac-C[tBuAla]PE[dK]PYCFADPY[Nle]CA-NH2 (linker I:4-I:11-I:18, II:1-II:8-II:15, III:1-III:8-III:15 via TATA; linker I:N-II:5-III:5 via X1) [BCY13046] |  | 0.17 nM | 57.6
